Experiments:
Type in all cases: biochemical
[1] = molecular target: T1, KDM6B (Homo sapiens, UniProt O15054); assay: Formaldehyde dehydrogenase-coupled demethylation assay, KDM6B
T1 construct: His6 (N); made in house; host or cells: Escherichia coli
Description: (§1) Formaldehyde dehydrogenase-coupled assays. Preliminary kinetic parameters were determined by detection of the formaldehyde by-product of the demethylation reaction using a FDH (formaldehyde dehydrogenase-coupled)/NAD^+-coupled assay as previously described. Assays were carried out in buffer (enzyme-dependent) with the addition of Fe(II) ammonium sulfate (10 μM), sodium ascorbate (100 μM), 2OG (200 μM), NAD^+ (500 μM), enzyme (0.2–4 μM) and FDH enzyme (0.025 U per assay, Sigma-Aldrich; total volume 30 μl) and were conducted at 37 °C in clear-bottom black 384-well plates. […] The Km and Vmax values were calculated from the reaction rate during the linear phase of formaldehyde production, as determined by the slope of the fluorescence signal recorded.

[2] = molecular target: T2, KDM4E (Homo sapiens, UniProt B2RXH2); assay: MALDI MS activity assay, recombinant KDM4E catalytic domain; conditions: peptide 10 μM, 1 h, 37 °C, MALDI-TOF MS; for observed arginine demethylation activity: KDM4E 2 μM, 2OG 200 μM, ascorbate 100 μM, Fe(II) 10 μM, 50 mM HEPES pH 7.5, −14 Da shift
T2 construct: His6 (N); made in house; host or cells: Escherichia coli
T2 sequence (B2RXH2 1-337): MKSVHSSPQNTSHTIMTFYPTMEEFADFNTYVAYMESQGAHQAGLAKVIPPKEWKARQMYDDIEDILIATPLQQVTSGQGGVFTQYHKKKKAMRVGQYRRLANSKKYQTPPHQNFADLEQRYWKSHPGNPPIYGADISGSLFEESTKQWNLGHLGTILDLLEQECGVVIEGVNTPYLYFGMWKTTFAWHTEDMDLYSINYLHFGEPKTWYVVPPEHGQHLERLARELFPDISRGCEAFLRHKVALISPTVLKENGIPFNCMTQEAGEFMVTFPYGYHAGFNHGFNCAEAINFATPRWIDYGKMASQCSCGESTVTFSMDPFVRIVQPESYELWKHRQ
Description: (§2) MALDI MS activity assays. Recombinant proteins (2 μM) were incubated with peptides (10 μM, sequences are given in Supplementary Table 1) and cofactors/substrates for 1 h at 37 °C, unless otherwise specified. Reactions were quenched with 1:1 (v/v) methanol and analysed with MALDI MS. Assay conditions for each enzyme are given in Supplementary Table 2. Negative controls without enzyme were included.
(§3) Supplementary Table 2 Assay conditions with truncated recombinant protein. […]

[3] = molecular target: T1, KDM6B; assay: MALDI MS activity assay, recombinant KDM6B catalytic domain; conditions: KDM6B 2 μM, peptide 10 μM, 1 h, 37 °C, 2OG 100 μM, ascorbate 100 μM, Fe(II) 10 μM, 50 mM HEPES pH 7.5, 150 mM NaCl; MALDI-TOF MS, −14 Da shift
Description: as §2
(§4) Supplementary Table 2 Assay conditions with truncated recombinant protein.
(§5) Supplementary Table 3 Assay conditions with full length Flag-tagged KDMs.

[4] = molecular target: T3, KDM3A (Homo sapiens, UniProt Q9Y4C1); assay: MALDI MS activity assay, recombinant KDM3A catalytic domain; conditions: KDM3A 2 μM, peptide 10 μM, 1 h, 37 °C, 2OG 100 μM, ascorbate 100 μM, Fe(II) 50 μM, 50 mM HEPES pH 7.5; MALDI-TOF MS, −14 Da shift
T3 construct: KDM3A515–1,317; His6 (N); made in house; host or cells: Sf9 cells
T3 sequence (Q9Y4C1 515-1317 limits assumed): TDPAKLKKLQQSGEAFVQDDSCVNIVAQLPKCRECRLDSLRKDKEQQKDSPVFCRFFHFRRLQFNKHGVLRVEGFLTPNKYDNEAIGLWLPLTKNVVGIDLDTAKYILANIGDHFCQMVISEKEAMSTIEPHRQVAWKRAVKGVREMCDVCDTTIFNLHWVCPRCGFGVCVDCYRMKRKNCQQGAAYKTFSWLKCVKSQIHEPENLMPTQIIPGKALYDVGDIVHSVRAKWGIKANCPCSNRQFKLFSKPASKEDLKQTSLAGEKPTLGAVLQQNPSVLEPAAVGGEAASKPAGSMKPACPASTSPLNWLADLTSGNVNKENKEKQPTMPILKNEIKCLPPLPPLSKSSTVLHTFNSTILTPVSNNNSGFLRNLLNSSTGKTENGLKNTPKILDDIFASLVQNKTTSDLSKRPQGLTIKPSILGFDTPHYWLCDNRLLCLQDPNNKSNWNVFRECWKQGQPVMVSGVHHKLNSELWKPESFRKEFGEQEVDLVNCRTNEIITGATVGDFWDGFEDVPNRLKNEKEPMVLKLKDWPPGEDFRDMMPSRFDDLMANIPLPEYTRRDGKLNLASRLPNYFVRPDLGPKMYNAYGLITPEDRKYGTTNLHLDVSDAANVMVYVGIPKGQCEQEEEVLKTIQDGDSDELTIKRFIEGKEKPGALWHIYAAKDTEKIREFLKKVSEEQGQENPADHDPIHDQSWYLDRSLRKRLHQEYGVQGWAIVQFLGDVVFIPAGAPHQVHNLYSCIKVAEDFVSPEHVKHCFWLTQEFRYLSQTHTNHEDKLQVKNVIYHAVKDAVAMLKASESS
Description: as §2, §4, §5

[5] = molecular target: T4, KDM5C (Homo sapiens, UniProt P41229); assay: MALDI MS activity assay, recombinant KDM5C catalytic domain; conditions: peptide 10 μM, 1 h, 37 °C, MALDI-TOF MS; for observed arginine demethylation activity: KDM5C 2 μM, 2OG 100 μM, ascorbate 100 μM, Fe(II) 10 μM, 50 mM HEPES pH 7.5, −14 Da shift
T4 construct: KDM5C1–765 was produced as an N-terminally His6-tagged protein in Sf9 cells; His6 (N); made in house; host or cells: Sf9 cells (provided by the Structural Genomics Consortium)
T4 sequence (P41229 1-765): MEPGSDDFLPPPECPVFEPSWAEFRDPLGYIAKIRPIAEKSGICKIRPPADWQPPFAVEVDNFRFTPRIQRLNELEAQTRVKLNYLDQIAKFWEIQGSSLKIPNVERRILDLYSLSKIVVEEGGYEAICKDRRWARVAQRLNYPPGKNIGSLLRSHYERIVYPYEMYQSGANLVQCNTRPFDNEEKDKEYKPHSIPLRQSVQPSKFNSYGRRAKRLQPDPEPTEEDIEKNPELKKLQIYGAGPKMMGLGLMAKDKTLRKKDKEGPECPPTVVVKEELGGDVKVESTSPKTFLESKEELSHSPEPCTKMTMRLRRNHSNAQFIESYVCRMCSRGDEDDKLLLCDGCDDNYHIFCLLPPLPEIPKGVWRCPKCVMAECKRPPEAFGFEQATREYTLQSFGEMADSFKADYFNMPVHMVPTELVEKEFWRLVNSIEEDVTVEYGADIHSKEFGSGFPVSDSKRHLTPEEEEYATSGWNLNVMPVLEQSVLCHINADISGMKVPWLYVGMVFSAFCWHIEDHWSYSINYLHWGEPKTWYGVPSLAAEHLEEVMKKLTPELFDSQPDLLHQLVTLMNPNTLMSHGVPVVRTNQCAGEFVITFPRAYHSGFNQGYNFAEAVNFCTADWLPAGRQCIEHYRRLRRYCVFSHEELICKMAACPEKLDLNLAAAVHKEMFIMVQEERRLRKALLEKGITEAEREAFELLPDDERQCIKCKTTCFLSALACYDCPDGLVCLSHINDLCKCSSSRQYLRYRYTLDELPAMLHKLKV
Description: as §2, §3

[6] = molecular target: T2, KDM4E; assay: Formaldehyde dehydrogenase-coupled demethylation assay, KDM4E; conditions: for kcat / Km: KDM4E catalytic domain, apparent, preliminary, 37 °C, mean±s.e.m., n=3; for kcat: FDH/NAD+-coupled assay; for Km: FDH/NAD+-coupled formaldehyde assay, 2OG 200 μM, Fe(II) 10 μM, ascorbate 100 μM; for kcat/KM: KDM4E
Description: as §1

[7] = molecular target: T4, KDM5C; assay: Formaldehyde dehydrogenase-coupled demethylation assay, KDM5C
Description: as §1

[8] = calculated from the average kcat and KM values, μM^−1 s^−1 for this quantity

T1 sequence (O15054 1141-1590 limits assumed): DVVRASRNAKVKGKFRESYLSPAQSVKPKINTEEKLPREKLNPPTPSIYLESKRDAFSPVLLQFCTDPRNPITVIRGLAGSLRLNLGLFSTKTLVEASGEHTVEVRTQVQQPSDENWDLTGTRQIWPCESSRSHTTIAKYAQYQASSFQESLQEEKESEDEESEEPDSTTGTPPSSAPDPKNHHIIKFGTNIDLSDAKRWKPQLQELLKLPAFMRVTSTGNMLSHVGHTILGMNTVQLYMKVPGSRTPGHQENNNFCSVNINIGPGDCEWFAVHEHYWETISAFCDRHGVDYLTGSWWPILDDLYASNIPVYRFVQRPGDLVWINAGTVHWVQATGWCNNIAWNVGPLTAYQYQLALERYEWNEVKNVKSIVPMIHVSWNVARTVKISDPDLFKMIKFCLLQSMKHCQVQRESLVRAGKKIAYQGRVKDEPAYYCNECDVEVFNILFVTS

observed arginine demethylation activity [2]	observed arginine demethylation activity [3]	observed arginine demethylation activity [4]	observed arginine demethylation activity [5]	Substance	further results
−	−	−	−	SG-Rme-GKGGKGLGKGGAK [H4 (1–15) R3me, 'natural' histone H4 peptide monomethylated at R3]	
−	−	−	−	STGGKAP-Rme2a-KQLATKA [H3 (10–24) R17me2a, 'natural' histone H3 peptide asymmetrically dimethylated at R17]	
+	−	−	−	SG-Rme2s-GKGGKGLGKGGA [H4 (1–15) R3me2s, 'natural' histone H4 residues 1-15 peptide symmetrically dimethylated at R3]	

Further lines, the substance ahead of its results:

Substance	observed arginine demethylation activity [2]	observed arginine demethylation activity [3]	observed arginine demethylation activity [4]	observed arginine demethylation activity [5]	further results
H3(14-34)K27me3: 21-residue recognized histone H3 N-methylated-lysine peptide substrate for KDM6B					kcat ([1]; KDM6B catalytic domain, apparent, preliminary, FDH/NAD+-coupled assay, 37 °C, mean±s.e.m., n=3): 11.7±0.1 × 10^−3 s^−1; Km ([1]; KDM6B catalytic domain, apparent, preliminary, FDH/NAD+-coupled formaldehyde assay, 37 °C, 2OG 200 μM, Fe(II) 10 μM, ascorbate 100 μM, mean±s.e.m., n=3): 6.7 ± 0.6 µM; kcat/KM ([1]; KDM6B, calculated from the average kcat and KM values): 1,750.0 × 10^−6
A-Rme-TKQTARKSTGGKA [H3 (1–15) R2me, 'natural' histone H3 peptide monomethylated at R2]	+	−	−	+	
SG-Rme2a-GKGGKGLGKGGA [H4(1-15)R3me2a, 'natural' histone H4 residues 1-15 peptide asymmetrically dimethylated at R3]	+	−	−	+	kcat [6]: 2.1±0.1 × 10^−3 s^−1; Km [6]: 122 ± 10.1 µM; kcat/KM [6, 8]: 17.7 × 10^−6
A-Rme2a-TKQTARKSTGGKA [H3(1-15)R2me2a, 'natural' histone H3 peptide asymmetrically dimethylated at R2]	+	−	−	+	demethylation, in words ([2]; KDM4E catalytic domain 2 μM): relatively good RDM substrate; kcat/KM [6]: 0.000114 µM⁻¹ s⁻¹; kcat [6]: 9.9±1.0 × 10^−3 s^−1; Km [6]: 86.9 ± 16.5 µM; kcat/KM [6, 8]: 114.0 × 10^−6; kcat/KM, times lower than that for H3K4me3 ([7]; KDM5C): 14 times; kcat ([7]; KDM5C catalytic domain, apparent, preliminary, FDH/NAD+-coupled assay, 37 °C, mean±s.e.m., n=3): 12.0±0.7 × 10^−3 s^−1; Km ([7]; KDM5C catalytic domain, apparent, preliminary, FDH/NAD+-coupled formaldehyde assay, 37 °C, 2OG 200 μM, Fe(II) 10 μM, ascorbate 100 μM, mean±s.e.m., n=3): 19 ± 1.9 µM; kcat/KM ([7]; KDM5C, calculated from the average kcat and KM values, μM^−1 s^−1 for this quantity): 630.0 × 10^−6; demethylation, in words ([5]; KDM5C catalytic domain 2 μM): relatively good RDM substrate
